Measured values: US20110135588A1, “Hair Conditioning Composition Comprising Quaternized Silicone Polymer, Silicone Copolymer, and Carbamate” (priority 2009, published 2011)

Test: Product appearance (compatibility with the quaternized silicone polymer and/or solvent thereof): silicone particle size observed by microscope
Type: physicochemical
Conditions: preservative used together with quaternized silicone polymer and its solvent
Procedure: Product Appearance (Compatibility with the Quaternized Silicone Polymer and/or Solvent Thereof)
Product appearance is evaluated as follows, by silicone particle size in compositions which was observed using micro scope.
Pass: Average silicone particle size is 200 μm or less
Fail: Average silicone particle size is above 200 μm (excluding 200 μm)

Structure (SMILES) | Agglomeration of quaternized silicone polymer (product appearance)
C/C=C/C=C/C(=O)[O-].[K+] [potassium sorbate] | form agglomerates
O=C(O)c1ccccc1O [salicylic acid] | form agglomerates
